Experimental data taken from US11707440B2 (priority 2017, dated 2023).

Tests used:
[1] = test system: subjects with MDD at imminent risk for suicide; settings: esketamine 84 mg
[2] = test system: subjects with MDD at imminent risk for suicide; test: Beck Scale for Suicidal Ideation (BSS), […]2001; format: in vivo, human; settings: esketamine 84 mg; Day 1: 4-hours postdose, Day 2 (DB), or End Point (DB)
Description: The BSS is a 21-item self-reported instrument to detect and measure the severity of suicidal ideation in adults and adolescents aged 17 years and older. The BSS total score represents the severity of suicide ideation, and it is calculated by summing the ratings of the first 19 items; the total score ranges from 0 to 38, with a higher score representing greater suicide ideation. Increasing scores reflect increases in suicidal risk.

[3] = test system: subjects with MDD at imminent risk for suicide; test: MADRS total score, study […]2001; format: in vivo, human; settings: esketamine 84 mg; baseline to Day 1, 4-hours postdose; ANCOVA
Excerpt: Primary efficacy variable/Primary Time point: Change from baseline (Day 1, predose) to Day 1, 4-hours postdose in MADRS total score. The MADRS consists of 10 items that cover all of the core depressive symptoms, with each item scoring from 0 (item is not present or is normal) to 6 (severe or continuous presence of the symptom). A higher score represents a more severe condition.
The primary efficacy endpoint is the change in MADRS total score from baseline to Day 1: 4-hours postdose. MADRS total scores range from 0 to 60. […] As this is a phase 2a proof-of-concept study, statistical significance is based on a two-sided alpha level of 0.20. All p-values presented in this document are two-sided.

[4] = test system: subjects with MDD at imminent risk for suicide; test: Sustained response, response and remission based on MADRS, […]2001; format: in vivo, human; settings: esketamine 84 mg; at least 50% MADRS reduction from Day 1 4 hours through Day 25
Excerpt: • a. Changes from baseline to Day 2 and Day 25 for the MADRS total score • b. Changes from baseline to Day 1 4-hours postdose, Day 2 and Day 25 for the MADRS Suicide Item • c. Changes from baseline to Day 1 4-hours postdose, Day 2, and Day 25 for the clinical global judgment of suicide risk from the Suicide Ideation and Behavior Assessment Tool (SIBAT) • d. Sustained response (Onset of Clinical Response) defined as at least 50% reduction from baseline in MADRS total score with onset on Day 1 that is maintained through the end of the double-blind phase (Day 25) • e. Changes from baseline to Day 1 4-hours postdose, Day 2, and Day 25 for the Beck Scale for Suicidal Ideation (BSS) • f. Changes from baseline to Day 1 4-hours postdose and Day 25 for the Beck Hopelessness Scale
Sustained response is defined as at least 50% reduction from baseline in MADRS total score with onset on Day 1: 4 hours postdose that is maintained through the end of the double-blind phase (Day 25). Four subjects in the esketamine 84 mg group and 2 subjects in the placebo group had sustained response throughout the double-blind phase.

**Q.** How did the “Subjects who discontinued from the double-blind phase due to (treatment-emergent) adverse events” value [1] turn out when `CN[C@]1(c2ccccc2Cl)CCCCC1=O` [esketamine, (S)-2-(2-chlorophenyl)-2-(methylamino)cyclohexanone] was run?
**A.** The value was 5 subjects.

**Q.** And the “Subjects with a serious TEAE” value ([1]; double-blind phase)?
**A.** The value was “Four”.

**Q.** And the “Subjects with at least one TEAE” value ([1]; double-blind phase)?
**A.** Its value is 94.3%.

**Q.** And the TEAE dissociation ([1]; double-blind phase)?
**A.** The TEAE dissociation was 31.4%.

**Q.** And the TEAE dizziness ([1]; double-blind phase)?
**A.** Its TEAE dizziness is 34.3%.

**Q.** And the TEAE dysgeusia ([1]; double-blind phase)?
**A.** The TEAE dysgeusia was 31.4%.

**Q.** What about the TEAE headache ([1]; double-blind phase) of the same compound?
**A.** The TEAE headache was 31.4%.

**Q.** And the TEAE nausea ([1]; double-blind phase)?
**A.** The TEAE nausea was 37.1%.

**Q.** And the TEAE vomiting ([1]; double-blind phase)?
**A.** Its TEAE vomiting is 20.0%.

**Q.** What about the “Subjects with a serious adverse event” value ([1]; follow up phase) of the same compound?
**A.** The value was 1 subjects.

**Q.** What about the “Subjects with at least one adverse event” value ([1]; follow up phase) of the same compound?
**A.** Its value is 48.1%.

**Q.** What about the “BSS total score change vs placebo” value [2] of the same compound?
**A.** Its value is “no statistically significant differences”.

**Q.** And the “MADRS total score, least-square mean difference (SE) from placebo” value [3]?
**A.** Its value is −5.3 (2.10).

**Q.** What about the “Subjects with sustained response throughout the double-blind phase” value [4] of the same compound?
**A.** The value was “Four”.
